Holding throughout (test): NCI-60 cell line screen, 48 h
In assay [1] the test system is CCRF-CEM.
Assay [2] has as its system HCC 2998.
For assay [3], the system named is HCT-116.
Assay [4] concerns HOP-62.
In assay [5] the test system is HT-29.
Assay [6] deals with IGROV-1.
Assay [7] concerns M14.
The subject of assay [8] is MDA-MB-231.
Assay [9] concerns MOLT-4.
Assay [10] relates to NCI-H226.
Assay [11] has as its system NCI-H460.
Assay [12] has as its system OVCAR-3.
Assay [13] deals with OVCAR-4.
Assay [14] deals with RXF 393.
Assay [15] relates to SF-539.
For assay [16], the system named is SK-MEL-2.
For assay [17], the system named is SW-620.
The test system of assay [18] is U-251.
The subject of assay [19] is UACC-257.
Assay [20] relates to UO-31.

SMILES strings stand for the structures.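 Values below derive from 48-hour exposures of cells grown in 96-well plates, with endpoints linearly interpolated between the two concentrations bracketing the appropriate inhibition level. Abbreviation: GI50, concentration required for 50% inhibition of growth.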 Active and inactive are the calls of the source. No stated cut-off is given here; in the data, active = GI50 up to about 1.1 µM and inactive = higher.

Consider `COC(=O)C1=C(C)NC(C)=C(C(=O)OC)C1c1ccc(N=O)cc1`, for which the GI50 in assay [1] was 0.897 µM (active); in assay [2], 16.9 µM (inactive); in [3] it was 6.12 µM (inactive); in assay [4] it was 23.8 µM (inactive); in assay [5], 13.6 µM (inactive); in assay [6] it was 16.1 µM (inactive). Moreover, the GI50 is 11.2 µM (inactive) in [7]; 11.4 µM (inactive) in assay [8]; 3.33 µM (inactive) in assay [9]; 16 µM (inactive) in assay [10]; 18.9 µM (inactive) in assay [11]; 13.6 µM (inactive) in assay [12]. The GI50 in [13] was 3.14 µM (inactive); in [14], 8.22 µM (inactive); in assay [15] it was 17.7 µM (inactive); in [16] it was 13.7 µM (inactive); in assay [17] it was 3.61 µM (inactive); in assay [18], 17.4 µM (inactive). Besides, the values for the GI50 in assay [19] and in assay [20] were 8.91 µM (inactive) and 13.2 µM (inactive), respectively.
Regarding `CCOC(=O)OC1(c2ccccc2)CCN(C)CC1`, the GI50 in assay [1], in assay [2], in [3], in assay [4], in [5] and in assay [6] was > 100 µM (inactive) in each case. Moreover, the GI50 in assay [7], in assay [8], in assay [9], in assay [10], in assay [11] and in [12] was > 100 µM (inactive) each time. Also, the GI50 in [13], in assay [14], in assay [15], in assay [16], in [17] and in assay [18] was > 100 µM (inactive) throughout. Also, the GI50 in [19] and in [20] was > 100 µM (inactive) throughout.
For the molecule `CO/C(N)=C(C#N)/N=C/c1cccs1`, the GI50 in assay [1] is 66.4 µM (inactive); in assay [2], > 100 µM (inactive); in [3], 42.2 µM (inactive); in assay [4], 98.4 µM (inactive); in assay [5], 25.9 µM (inactive); in assay [6] it was 77.6 µM (inactive). The GI50 is 41.2 µM (inactive) in assay [7]; > 100 µM (inactive) in assay [8]; 62.8 µM (inactive) in assay [9]; > 100 µM (inactive) in assay [10]; > 100 µM (inactive) in [11]; 49.8 µM (inactive) in assay [12]. The GI50 in assay [13] is > 100 µM (inactive); in assay [14] it was > 100 µM (inactive); in assay [15] it was 92.7 µM (inactive); in assay [16] it was > 100 µM (inactive); in assay [17] it was 68.1 µM (inactive); in assay [18] it was 74 µM (inactive). In addition, the GI50 in assay [19] is 32.5 µM (inactive); in assay [20], > 100 µM (inactive).
`O=[N+]([O-])c1ccc(Cl)cc1/C=N/C12CC3CC(CC(C3)C1)C2`: the GI50 is 5.64 µM (inactive) in assay [1]; > 82.4 µM (inactive) in [2]; 5.24 µM (inactive) in [3]; 60.8 µM (inactive) in assay [4]; 30.6 µM (inactive) in assay [5]; 55.7 µM (inactive) in [6]. Also, the GI50 is 45.5 µM (inactive) in assay [7]; 40.3 µM (inactive) in [8]; 18.5 µM (inactive) in assay [9]; 61.5 µM (inactive) in [10]; > 74 µM (inactive) in [11]; 46.9 µM (inactive) in assay [12]. The GI50 in [13] was 63.5 µM (inactive); in assay [14] it was 53.1 µM (inactive); in assay [15] it was 31.7 µM (inactive); in [16], > 66.8 µM (inactive); in assay [17] it was 22 µM (inactive); in assay [18] it was 33.2 µM (inactive). For the same molecule, the GI50 is > 31.6 µM (inactive) in [19] and 76.7 µM (inactive) in [20].
As to `CC(=O)CCCCn1c(=O)c2c(nc(Br)n2C)n(C)c1=O`, the GI50 in assay [1] was > 100 µM (inactive); in [2], 95.3 µM (inactive); in [3], > 100 µM (inactive); in assay [4], > 100 µM (inactive); in assay [5], > 100 µM (inactive); in assay [6], 44.2 µM (inactive). Further, the GI50 in assay [7], in [8], in assay [9], in assay [10], in assay [11] and in assay [12] was > 100 µM (inactive) in each case. The GI50 in assay [13], in assay [14], in assay [15], in [16], in [17] and in [18] was > 100 µM (inactive) throughout. Also, the GI50 in assay [19] is > 100 µM (inactive); in assay [20] it was 32.4 µM (inactive).
